Here are results for 84 molecules from the RepoRT retention time repository.

The data set in a line: RP, Waters ACQUITY UPLC HSS T3, 0.1 mL/min; A: water + 0.01% formic acid; B: acetonitrile + 0.01% formic acid; gradient (min/%B) 0/10 38/45 45/45 55/0 60/0. The settings on record: stereoisomer not certain.
On to `CNC(=O)Nc1ccc(Cl)c(Cl)c1` [1-(3,4-Dichlorophenyl)-3-methylurea], for which the LC retention time was found to be 20.5 min.

Consider `NC(=O)Nc1ccc(Cl)c(Cl)c1` [1-(3,4-Dichlorophenyl)urea], for which the LC retention time was 16.9 min.

In the case of `Cc1cc(Cl)ccc1OCC(=O)O` [2,4-mcpa], the LC retention time was 17.2 min.

Regarding `Oc1ccccc1-c1ccccc1` [2-Phenylphenol], the LC retention time worked out at 30.2 min.

Turning to `Cc1ccc(C(=O)O)c(Cl)c1` [2-chloro-4-methylbenzoic acid], the LC retention time is 44.3 min.

Regarding `Nc1ccc(O)cc1` [4-Aminophenol], the LC retention time came out at 1.3 min.

As for `NCCc1c[nH]c2ccc(O)cc12` [5-Hydroxytryptamine], the LC retention time is 4.3 min.

Turning to `CCOCN(C(=O)CCl)c1c(C)cccc1CC` [Acetochlor], the LC retention time amounted to 40.6 min.

As for `CC(=O)OCC[N+](C)(C)C` [Acetylcholine], the LC retention time is 1.39 min.

On to `CC(=O)Oc1ccccc1C(=O)O` [Acetylsalicylic acid], for which the LC retention time was 8.55 min.

For `COc1cc2c(c3oc(=O)c4c(c13)CCC4=O)C1C=COC1O2` (centres undefined) [Aflatoxin B1], the LC retention time came to 17.5 min.

`CCc1cccc(CC)c1N(COC)C(=O)CCl` [Alachlor]: the LC retention time is 39.4 min.

For the molecule `CC12CCC(=O)C=C1CCC1C2C(O)CC2(C=O)C(C(=O)CO)CCC12` (centres undefined) [Aldosterone], the LC retention time was 13.8 min.

Take `CC(=O)C1CCC2C3CCC4CC(O)CCC4(C)C3CCC12C` (centres undefined) [Allopregnanolone]: the LC retention time stood at 43.9 min.

On to `CCNc1nc(NC(C)C)nc(SC)n1` [Ametryn], for which the LC retention time came out at 20.1 min.

`COc1cc(OC)nc(NC(=O)NS(=O)(=O)N(C)S(C)(=O)=O)n1` [Amidosulfuron]: the LC retention time is 21.2 min.

For the molecule `Nc1nc2ccccc2[nH]1` [Aminobenzimidazole], the LC retention time was 4.74 min.

On to `CC12CCC3C(CCC4=CC(=O)CCC43C)C1CCC2=O` (centres undefined) [Androstenedione], for which the LC retention time is 31.5 min.

For the molecule `Nc1ccccc1` [Aniline], the LC retention time turned out to be 3.1 min.

As for `CCCCCC=CCC=CCC=CCC=CCCCC(=O)O` [Arachidonic Acid], the LC retention time was 47 min.

As to `CCNc1nc(N)nc(Cl)n1` [Atrazine-desisopropyl], the LC retention time was 6.98 min.

With `COC=C(C(=O)OC)c1ccccc1Oc1cc(Oc2ccccc2C#N)ncn1` [Azoxystrobin], the LC retention time worked out at 38 min.

For the molecule `CCC(Oc1ccc(F)c(C(F)(F)F)c1)C(=O)NCc1ccccc1` (centres undefined) [Beflubutamid], the LC retention time came out at 42.7 min.

With `Cn1cc(C(=O)Nc2ccc(F)cc2-c2ccc(Cl)c(Cl)c2)c(C(F)F)n1` [Bixafen], the LC retention time is 42.2 min.

As for `O=C(Nc1ccccc1-c1ccc(Cl)cc1)c1cccnc1Cl` [Boscalid], the LC retention time worked out at 38 min.

Regarding `CCC(C)n1c(=O)[nH]c(C)c(Br)c1=O` (centres undefined) [Bromacil], the LC retention time was determined as 14.3 min.

For the molecule `Cn1c(=O)c2c(ncn2C)n(C)c1=O` [Caffeine], the LC retention time came to 5.71 min.

In the case of `NC(=O)N1c2ccccc2C=Cc2ccccc21` [Carbamazepine], the LC retention time amounted to 18 min.

Turning to `COC(=O)Nc1nc2ccccc2[nH]1` [Carbendazim], the LC retention time came to 5.69 min.

Consider `CCNC(=O)C(C)OC(=O)Nc1ccccc1` (centres undefined) [Carbetamide], for which the LC retention time came out at 13.5 min.

As to `CNC(=O)Oc1cccc2c1OC(C)(C)C2` [Carbofuran], the LC retention time came to 18.6 min.

`CNC(=O)c1cc(Cl)cc(C)c1NC(=O)c1cc(Br)nn1-c1ncccc1Cl` [Chlorantraniliprole]: the LC retention time was determined as 30.9 min.

Regarding `Nc1cnn(-c2ccccc2)c(=O)c1Cl` [Chloridazon], the LC retention time amounted to 9.25 min.

As to `COP(=S)(OC)Oc1nc(Cl)c(Cl)cc1Cl` [Chlorpyrifos-methyl], the LC retention time stood at 43.9 min.

As to `CCOP(=S)(OCC)Oc1nc(Cl)c(Cl)cc1Cl` [Chlorpyrifos], the LC retention time worked out at 45.5 min.

Turning to `Cc1ccc(NC(=O)N(C)C)cc1Cl` [Chlortoluron], the LC retention time came to 20.5 min.

For the molecule `CNC(=N[N+](=O)[O-])NCc1cnc(Cl)s1` [Clothianidin], the LC retention time came to 7.99 min.

`COc1ccc2c3c1OC1C(O)C=CC4C(C2)N(C)CCC341` (centres undefined) [Codeine]: the LC retention time is 5.12 min.

`CC12CCC(=O)C=C1CCC1C2C(=O)CC2(C)C1CCC2(O)C(=O)CO` (centres undefined) [Cortisone]: the LC retention time was determined as 16.1 min.

Turning to `CN1C(=O)CCC1c1ccc[n+](C2OC(C(=O)[O-])C(O)C(O)C2O)c1` (centres undefined) [Cotinine glucuronide], the LC retention time worked out at 1.4 min.

Consider `CN1C(=O)CCC1c1cccnc1` (centres undefined) [Cotinine], for which the LC retention time amounted to 4.31 min.

Regarding `Cc1cc(C2CC2)nc(Nc2ccccc2)n1` [Cyprodinil], the LC retention time amounted to 33.2 min.

Regarding `CC12CCC3C(CC=C4CC(O)CCC43C)C1CCC2=O` (centres undefined) [Dehydroepiandrosterone], the LC retention time was 31.7 min.

`CCOP(=S)(OCC)Oc1cc(C)nc(C(C)C)n1` [Diazinon]: the LC retention time came out at 43.4 min.

Take `CC(Oc1ccc(Cl)cc1Cl)C(=O)O` (centres undefined) [Dichlorprop]: the LC retention time was found to be 10 min.

In the case of `O=C(O)Cc1ccccc1Nc1c(Cl)cccc1Cl` [Diclofenac], the LC retention time amounted to 39.6 min.

Consider `COCC(C)N(C(=O)CCl)c1c(C)csc1C` (centres undefined) [Dimethenamid], for which the LC retention time was determined as 32.5 min.

On to `COc1ccc(C(=CC(=O)N2CCOCC2)c2ccc(Cl)cc2)cc1OC` [Dimethomorph], for which the LC retention time was 32.7 min.

As for `COP(=S)(S)OC` [Dimethyldithiophosphate], the LC retention time worked out at 2.95 min.

Regarding `CN(C)C(=O)Nc1ccc(Cl)c(Cl)c1` [Diuron], the LC retention time was found to be 23.7 min.

Take `NCCc1ccc(O)c(O)c1` [Dopamine]: the LC retention time amounted to 3.88 min.

As to `CNCC(O)c1ccc(O)c(O)c1` (centres undefined) [Epinephrine], the LC retention time came out at 4.39 min.

With `CC12CCC3c4cc(O)c(O)cc4CCC3C1CCC2O` (centres undefined) [Estradiol-2-hydroxy], the LC retention time was 21.5 min.

Regarding `CC12CCC3c4ccc(O)cc4CCC3C1CC(O)C2O` (centres undefined) [Estriol], the LC retention time was determined as 11.7 min.

Take `CC12CCC3c4cc(O)c(O)cc4CCC3C1CCC2=O` (centres undefined) [Estrone-2-hydroxy]: the LC retention time was 24.6 min.

On to `CC12CCC3c4ccc(O)cc4CCC3C1CCC2=O` (centres undefined) [Estrone], for which the LC retention time was 31.6 min.

Take `CCS(=O)(=O)c1nnc(N(C)C(=O)NC)s1` [Ethidimuron]: the LC retention time is 9.06 min.

For the molecule `C#CC1(O)CCC2C3CCc4cc(O)ccc4C3CCC21C` (centres undefined) [Ethinylestradiol], the LC retention time came out at 31.6 min.

Regarding `CSC1=NC(C)(c2ccccc2)C(=O)N1Nc1ccccc1` (centres undefined) [Fenamidone], the LC retention time worked out at 35.8 min.

For the molecule `CC(Cc1ccc(C(C)(C)C)cc1)CN1CCCCC1` (centres undefined) [Fenpropidine], the LC retention time is 26.2 min.

Regarding `CC(Cc1ccc(C(C)(C)C)cc1)CN1CC(C)OC(C)C1` (centres undefined) [Fenpropimorph], the LC retention time amounted to 30.1 min.

For `N#CCNC(=O)c1cnccc1C(F)(F)F` [Flonicamid], the LC retention time was 7.52 min.

With `CC(C)N(C(=O)COc1nnc(C(F)(F)F)s1)c1ccc(F)cc1` [Flufenacet], the LC retention time was 41.1 min.

On to `CNCCC(Oc1ccc(C(F)(F)F)cc1)c1ccccc1` (centres undefined) [Fluoxetine], for which the LC retention time was 23.7 min.

Consider `Nc1c(Cl)c(F)nc(OCC(=O)O)c1Cl` [Fluroxypyr], for which the LC retention time amounted to 14.4 min.

Turning to `CNC1=C(c2cccc(C(F)(F)F)c2)C(=O)C(c2ccccc2)O1` (centres undefined) [Flurtamone], the LC retention time was determined as 34.1 min.

With `COc1cc(OC)nc(NC(=O)NS(=O)(=O)c2cc(NC=O)ccc2C(=O)N(C)C)n1` [Foramsulfuron], the LC retention time was 17.9 min.

Turning to `CCOP(=O)(SC(C)CC)N1CCSC1=O` (centres undefined) [Fosthiazate], the LC retention time turned out to be 22.2 min.

Turning to `CC12CCC(=O)C=C1CCC1C2C(O)CC2(C)C1CCC2(O)C(=O)CO` (centres undefined) [Hydrocortisone], the LC retention time came to 15.9 min.

As to `O=C(O)Cc1c[nH]c2ccc(O)cc12` [Hydroxyindoleacetic acid], the LC retention time came out at 5.71 min.

With `CC(C)Cc1ccc(C(C)C(=O)O)cc1` (centres undefined) [Ibuprofen], the LC retention time was 39.9 min.

Turning to `COC(=O)c1ccc(C)cc1C1=NC(C)(C(C)C)C(=O)N1` (centres undefined) [Imazamethabenz-methyl], the LC retention time is 14.2 min.

As for `COCc1cnc(C2=NC(C)(C(C)C)C(=O)N2)c(C(=O)O)c1` (centres undefined) [Imazamox], the LC retention time was determined as 9.34 min.

Take `CC(C)C1(C)N=C(c2nc3ccccc3cc2C(=O)O)NC1=O` (centres undefined) [Imazaquin]: the LC retention time worked out at 16.3 min.

Consider `O=[N+]([O-])/N=C1\NCCN1Cc1ccc(Cl)nc1` [Imidacloprid], for which the LC retention time was found to be 8.57 min.

Turning to `COC(=O)c1ccc(I)cc1S(=O)(=O)NC(=O)Nc1nc(C)nc(OC)n1` [Iodosulfuron-methyl], the LC retention time was 30.4 min.

For the molecule `CC(C)NC(=O)N1CC(=O)N(c2cc(Cl)cc(Cl)c2)C1=O` [Iprodione], the LC retention time came out at 39.9 min.

In the case of `CSc1nc(NC2CC2)nc(NC(C)(C)C)n1` [Irgarol], the LC retention time was found to be 29.9 min.

With `CC(C)c1ccc(NC(=O)N(C)C)cc1` [Isoproturon], the LC retention time is 23.4 min.

For the molecule `CCC(C)(CC)c1cc(NC(=O)c2c(OC)cccc2OC)on1` [Isoxaben], the LC retention time was 39 min.

Turning to `CS(=O)(=O)c1cc(C(F)(F)F)ccc1C(=O)c1cnoc1C1CC1` [Isoxaflutole], the LC retention time was 35.3 min.

For `CC(C(=O)O)c1cccc(C(=O)c2ccccc2)c1` (centres undefined) [Ketoprofen], the LC retention time turned out to be 28.3 min.

With `N[C@@H](Cc1cc(I)c(Oc2cc(I)c(O)c(I)c2)c(I)c1)C(=O)O` [L-thyroxine], the LC retention time stood at 25.6 min.

Regarding `CCCCCC=CCC(O)C=CC=CC=CC(O)CCCC(=O)O` (centres undefined) [Leukotriene B4], the LC retention time turned out to be 39.5 min.
